Where “and” joins values, the source holds several entries; their conditions need not be identical. Equal entries are not always repeated. Where two headings read alike, the source gives them in different places. Values belong to the compound of their own block, whether it stands above or below them.
What was measured:
[1] = tested on: DK-PGD2-induced blood eosinophilia; assay: Inhibition of DK-PGD2-induced blood eosinophilia in rats; type: in vivo, rat; details: female rats, oral dosing 30 min before 10 μg DK-PGD2 intracardiac; ED50 from dose-response curve; the values are: ED50
Experimental: Evaluation of Compounds of General Formula (I) as Inhibitors of 13,14-dihydro-15-keto prostaglandin D2 (DK-PGD2)-Induced Blood Eosinophilia in Rats
The test compound was dissolved in DMSO and diluted with water to give a final dosing volume of 2 ml/kg.
Female rats (175-250 g; UH colony) were dosed orally with test compound (or vehicle).
30 min after dosing all animals were anaesthetised with isoflurane.
Following induction of anaesthesia, animals receive an intracardiac injection of 10 μg DK-PGD2 in 0.3 ml heparinised (10 U/ml) saline. Control animals received an injection of 0.3 ml heparinised saline.
60 min after the intracardiac injection, animals were injected with an overdose of pentobarbitone sodium and a blood sample was taken (into heparin) by cardiac puncture while the rat was anaesthetised but not dead.
An aliquot of blood (100 μl) was added to Turk's solution and the total leukocyte count determined with a haemocytometer.
A further aliquot of blood (500 μl) was mixed with an equal volume of 4% Dextran (mw 500,000) and the erythrocytes allowed to settle. A cytospin preparation was made from the resulting leukocyte rich fraction.
Cytospin preparations were fixed with methanol (5 min) and stained with May-Grunwald (5 min) and Giemsa (15 min) stains. Finally cytospins were washed in phosphate buffer (pH6.8) and air dried.
Differential leukocyte counts were obtained from the cytospin preparations.
Blood eosinophil numbers were determined from the total leukocyte count and the percentage eosinophils (differential count).
Because it was impractical to generate sufficient data in any given experiment, data were obtained over a number of replicate experiments. Data from these replicate experiments were pooled, to provide at least 5 animals in each group and a dose-response curve fitted following a significance test (Mann Whitney) to determine whether or not DK-PGD2 caused a significant increase in blood eosinophils (GraphPad, Prism). A difference between groups was taken to be significant when P<0.05. ED50 values were calculated from the dose-response curve.

[2] = Pharmacokinetics following oral administration in the rat; type: in vivo; details: for AUC(0-inf) / Cmax / Tmax / half-life / AUCinf / T½: 3 mg/kg p.o
Experimental: Investigation of Pharmacokinetics of Compounds of General Formula (I) Following Oral Administration in the Rat
Rats were weighed on the day of dosing.
The test material was prepared as a 0.3 mg/mL suspension in 1% carboxy-methyl-cellulose (CMC).
Three groups of 3 rats were dosed as follows:
Doses were administered as a single oral dose using a gavage tube at a constant dose volume of 10 mL/kg.
At each sampling time point blood samples (approximately 0.3 mL) was taken from a catheter inserted into a lateral tail vein prior to the start of the experiment. The final blood sample (approximately 2 mL) from each animal was taken by cardiac puncture under isoflurane anaesthesia following which the animal was killed by exsanguination. Blood samples were taken into individual heparinised containers. Blood samples were collected at the following times post-dose:
Following collection, the blood samples were centrifuged (approximately 10,000×g, 2 min at 4° C.) and the plasma stored as one aliquot at approximately −20° C. pending analysis of drug concentrations by LC-MS/MS.
The plasma samples were analysed for test material concentrations at BioDynamics using an LC-MS/MS method developed at BioDynamics.

[3] = tested on: PGD2 induced eosinophil shape change; assay: Human whole blood eosinophil shape change assay; type: cell-based
Experimental: Human Whole Blood Eosinophil Shape Change Assay
Compounds 1 to 3 were assayed for their effect on PGD2 induced eosinophil shape change and were compared with Comparator Compounds A to G.
Shape Change Assay in Whole Blood
Compounds (1 μl, 200× final concentration) were added directly to 200 μl whole blood, mixed well and incubated for 15 min, 37° C., 5% CO2. After this time, cell shape was fixed by addition of 300 μl Cytofix™ buffer (BD Biosciences), 15 min on ice. 10 ml RBC lysis buffer was added to the fixed cells, incubated 5 min, at room temperature and centrifuged, 300×g for 5 min. Supernatant (containing lysed red cells) was removed and the lysis step was repeated. Leukocytes were resuspended in 250 μl RPMI/10% FCS and shape change analysed by FACS. Eosinophils were gated out based on their autofluorescence and 2000 eosinophil events were counted per sample. Data were analysed in triplicate.

[4] = male, rat, plasma, po, 3 mg/kg, rat, 3 mg/kg oral, 0.25 h, individual male animals, read-out: Concentration in Blood
[5] = male, rat, plasma, po, 3 mg/kg, rat, 3 mg/kg oral, 0.25 h, mean, read-out: Concentration in Blood, Mean
[6] = male, rat, plasma, po, 3 mg/kg, rat, 3 mg/kg oral, 0.5 h, individual male animals, read-out: Concentration in Blood
[7] = male, rat, plasma, po, 3 mg/kg, rat, 3 mg/kg oral, 0.5 h, mean, read-out: Concentration in Blood, Mean
[8] = male, rat, plasma, po, 3 mg/kg, rat, 3 mg/kg oral, 1 h, individual male animals, read-out: Concentration in Blood
[9] = male, rat, plasma, po, 3 mg/kg, rat, 3 mg/kg oral, 1 h, mean, read-out: Concentration in Blood, Mean
[10] = male, rat, plasma, po, 3 mg/kg, rat, 3 mg/kg oral, 2 h, individual male animals, read-out: Concentration in Blood
[11] = male, rat, plasma, po, 3 mg/kg, rat, 3 mg/kg oral, 2 h, mean, read-out: Concentration in Blood, Mean
[12] = male, rat, plasma, po, 3 mg/kg, rat, 3 mg/kg oral, 4 h, individual male animals, read-out: Concentration in Blood
[13] = male, rat, plasma, po, 3 mg/kg, rat, 3 mg/kg oral, 4 h, mean, read-out: Concentration in Blood, Mean
[14] = male, rat, plasma, po, 3 mg/kg, rat, 3 mg/kg oral, 6 h, mean, read-out: Concentration in Blood, Mean
[15] = male, rat, plasma, po, 3 mg/kg, rat, 3 mg/kg oral, 8 h, mean, read-out: Concentration in Blood, Mean
[16] = male, rat, plasma, po, 3 mg/kg, rat, 3 mg/kg oral, 12 h, mean, read-out: Concentration in Blood, Mean
[17] = male, rat, plasma, po, 3 mg/kg, rat, individual male animals, read-out: AUCinf
[18] = male, rat, plasma, po, 3 mg/kg, rat, individual male animals, read-out: Cmax
[19] = male, rat, plasma, po, 3 mg/kg, rat, individual male animals, read-out: Tmax
[20] = male, rat, plasma, po, 3 mg/kg, rat, mean, summary without unit (Table 12), read-out: AUCinf (mean)
[21] = male, rat, plasma, po, 3 mg/kg, rat, mean, summary without unit (Table 12), read-out: Cmax (mean)
[22] = male, rat, plasma, po, 3 mg/kg, rat, mean, read-out: AUCinf, Mean
[23] = male, rat, plasma, po, 3 mg/kg, rat, mean, read-out: Cmax, Mean
[24] = male, rat, plasma, po, 3 mg/kg, rat, mean, read-out: Tmax, Mean
[25] = male, rat, plasma, po, 3 mg/kg, rat, mean, read-out: T½, Mean (converted)
[26] = rat, 3 mg/kg oral, 0.25 h, individual male animals, 3 mg/kg
[27] = rat, 3 mg/kg oral, 0.5 h, individual male animals, 3 mg/kg
[28] = rat, 3 mg/kg oral, 1 h, individual male animals, 3 mg/kg
[29] = rat, 3 mg/kg oral, 2 h, individual male animals, 3 mg/kg
[30] = rat, 3 mg/kg oral, 4 h, individual male animals, 3 mg/kg
[31] = rat, 3 mg/kg oral, 6 h, individual male animals, 3 mg/kg
[32] = rat, 3 mg/kg oral, 8 h, individual male animals, 3 mg/kg
[33] = rat, 3 mg/kg oral, 12 h, individual male animals, 3 mg/kg
[34] = rat, 3 mg/kg oral, 24 h, individual male animals, 3 mg/kg
[35] = rat, individual male animals, 3 mg/kg
[36] = Homo sapiens, Eosinophil, 10 nm PGD2-induced eosinophil shape change, human whole blood, read-out: Whole Blood IC50
[37] = Homo sapiens, Eosinophil, Table 12 summary of whole blood eosinophil shape change IC50, read-out: IC50 (μmol)

- concentration at 0.25 h [2, 4]: 1160 ng/mL
- concentration at 0.25 h [2, 5]: 1450 ng/mL
- concentration at 0.5 h [2, 6]: 2680 ng/mL
- concentration at 0.5 h [2, 7]: 2910 ng/mL
- concentration at 1 h [2, 8]: 3840 ng/mL
- concentration at 1 h [2, 9]: 4000 ng/mL
- concentration at 2 h [2, 10]: 4330 ng/mL
- concentration at 2 h [2, 11]: 3950 ng/mL
- concentration at 4 h [2, 12]: 1890 ng/mL
- concentration at 4 h [2, 13]: 1540 ng/mL
- concentration at 6 h [2, 14]: 1050 ng/mL
- concentration at 8 h [2, 15]: 734 ng/mL
- concentration at 12 h ([2]; male, rat, plasma, po, 3 mg/kg, rat, 3 mg/kg oral, 12 h, individual male animals, read-out: Concentration in Blood): 455 ng/mL
- concentration at 12 h [2, 16]: 375 ng/mL
- concentration at 24 h ([2]; male, rat, plasma, po, 3 mg/kg, rat, 3 mg/kg oral, 24 h, mean, read-out: Concentration in Blood, Mean): 47.4 ng/mL
- AUC(0-inf) [2, 17]: 23800 ng·h/mL
- Cmax [2, 18]: 4330 ng/mL
- Tmax [2, 19]: 2 h
- half-life ([2]; male, rat, plasma, po, 3 mg/kg, rat, individual male animals, read-out: T½ (converted)): 4.11 h
- AUC(0-inf) [2, 20]: 19200 ng·h/mL
- Cmax [2, 21]: 4160 ng/mL
- AUC(0-inf) [2, 22]: 19300 ng·h/mL
- Cmax [2, 23]: 4160 ng/mL
- Tmax [2, 24]: 1.3 h
- half-life [2, 25]: 3.6 h
- Fold over IC50 at 12 h ([2]; mean blood concentration at 12 h (rat, 3 mg/kg p.o.) divided by whole blood IC50 in ng/ml): 170
- Concentration in Blood [2, 26]: 1496.0 ng/mL and 1678.0 ng/mL
- Concentration in Blood [2, 27]: 2792.4 ng/mL and 3264.7 ng/mL
- Concentration in Blood [2, 28]: 3895.3 ng/mL and 4262.9 ng/mL
- Concentration in Blood [2, 29]: 3454.7 ng/mL and 4051.1 ng/mL
- Concentration in Blood [2, 30]: 1046.5 ng/mL and 1670.8 ng/mL
- Concentration in Blood [2, 33]: 256.6 ng/mL and 412.8 ng/mL
- Concentration in Blood [2, 34]: 68.5 ng/mL and 10.2 ng/mL and 63.5 ng/mL
- AUCinf [2, 35]: 14846 ng·h/mL and 21731 ng·h/mL
- Cmax [2, 35]: 3895 ng/mL and 4263 ng/mL
- Tmax [2, 35]: 1 h
- T½ [2, 35]: 3.07 h and 4.59 h
- IC50 [3, 36]: 5 nM
- IC50 [3, 37]: 5 nM
- IC50 ([3]; whole blood eosinophil shape change IC50 converted to ng/mL): 2.2 ng/mL
SMILES: Cc1c(Cc2ccccc2S(=O)(=O)c2ccccc2)c2cc(F)ccc2n1CC(=O)O [Compound 1, 2-(5-fluoro-2-methyl-3-(2-(phenylsulfonyl)benzyl)-1H-indol-1-yl)acetic acid]
- Potency in inhibition of DK-PGD2-induced blood eosinophilia [1]: 2.5 µg/kg
- Concentration in Blood [2, 31]: 1423.7 ng/mL and 547.5 ng/mL and 1183.1 ng/mL
- Concentration in Blood [2, 32]: 1099.9 ng/mL and 404.7 ng/mL and 696.2 ng/mL

- concentration at 0.25 h [2, 4]: 1570 ng/mL
- concentration at 0.25 h [2, 5]: 1490 ng/mL
- concentration at 0.5 h [2, 6]: 2610 ng/mL
- concentration at 0.5 h [2, 7]: 2220 ng/mL
- concentration at 1 h [2, 8]: 2960 ng/mL
- concentration at 1 h [2, 9]: 2900 ng/mL
- concentration at 2 h [2, 10]: 2240 ng/mL
- concentration at 2 h [2, 11]: 2500 ng/mL
- concentration at 4 h [2, 12]: 1130 ng/mL
- concentration at 4 h [2, 13]: 1370 ng/mL
- concentration at 6 h [2, 14]: 640 ng/mL
- concentration at 8 h [2, 15]: 450 ng/mL
- concentration at 12 h [2, 16]: 100 ng/mL
- AUC(0-inf) [2, 17]: 13200 ng·h/mL
- Cmax [2, 18]: 2960 ng/mL
- Tmax [2, 19]: 1 h
- AUC(0-inf) [2, 20]: 11700 ng·h/mL
- Cmax [2, 21]: 2950 ng/mL
- AUC(0-inf) [2, 22]: 11700 ng·h/mL
- Cmax [2, 23]: 2950 ng/mL
- Tmax [2, 24]: 1.3 h
- half-life [2, 25]: 3.7 h
- Concentration in Blood [2, 26]: 1297.7 ng/mL and 1608.1 ng/mL
- Concentration in Blood [2, 27]: 1770.2 ng/mL and 2276.6 ng/mL
- Concentration in Blood [2, 28]: 2367.1 ng/mL and 3366.1 ng/mL
- Concentration in Blood [2, 29]: 2536.9 ng/mL and 2717.6 ng/mL
- Concentration in Blood [2, 30]: 1319.1 ng/mL and 1666.5 ng/mL
- Concentration in Blood [2, 34]: 60.5 ng/mL and 0.0 ng/mL (2×)
- AUCinf [2, 35]: 10179 ng·h/mL and 15677 ng·h/mL
- Cmax [2, 35]: 2537.0 ng/mL and 3366.0 ng/mL
- Tmax [2, 35]: 2.0 h
- T½ [2, 35]: 6 hours and 2 hours (2×)
- IC50 [3, 36]: 2 nM
- IC50 [3, 37]: 2 nM
- IC50 ([3]; Homo sapiens, Eosinophil, whole blood eosinophil shape change IC50 converted to ng/mL, read-out: IC50): 0.9 ng/mL
- IC50 ([3]; Homo sapiens, Eosinophil, read-out: IC50 in the whole blood eosinophil shape change assay): 2 nM
SMILES: Cc1c(Cc2ccccc2S(=O)(=O)c2ccc(Cl)cc2)c2cc(F)ccc2n1CC(=O)O [Compound 2, 2-(3-(2-(4-chlorophenylsulfonyl)benzyl)-5-fluoro-2-methyl-1H-indol-1-yl)acetic acid]
- Potency in inhibition of DK-PGD2-induced blood eosinophilia [1]: 10 µg/kg
- Concentration in Blood [2, 31]: 519.6 ng/mL and 368.3 ng/mL and 1032.6 ng/mL
- Concentration in Blood [2, 32]: 423.7 ng/mL and 186.7 ng/mL and 740.4 ng/mL
- Concentration in Blood [2, 33]: 144.7 ng/mL and 28.2 ng/mL and 128.1 ng/mL

From US7999119B2, “Compounds having CRTH2 antagonist activity” (Oxagen Limited, priority 2006, dated 2011)
